# Results taken from ChEMBL document CHEMBL1201862, “PubChem BioAssay data set” (2004).
# Active and inactive are the calls of the source.
# Assays:
# [1] = reduced cellular PGC1a acetyl-lysine signal – cell-based, cherry-picked samples, dose response (AID 720514); format: functional;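 also: potency may reflect raised or lowered acetylation signal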
# [2] = molecular target: Glucose-6-phosphate 1-dehydrogenase (Homo sapiens, UniProt P11413); test: inhibition of Homo sapiens G6PD, dose series – biochemical, fluorescence, selectivity assay for P. falciparum G6PD inhibitor project, dose response (AID 504792); format: functional
# Glucose-6-phosphate 1-dehydrogenase, sequence (P11413 whole entry, the tested form may be a part): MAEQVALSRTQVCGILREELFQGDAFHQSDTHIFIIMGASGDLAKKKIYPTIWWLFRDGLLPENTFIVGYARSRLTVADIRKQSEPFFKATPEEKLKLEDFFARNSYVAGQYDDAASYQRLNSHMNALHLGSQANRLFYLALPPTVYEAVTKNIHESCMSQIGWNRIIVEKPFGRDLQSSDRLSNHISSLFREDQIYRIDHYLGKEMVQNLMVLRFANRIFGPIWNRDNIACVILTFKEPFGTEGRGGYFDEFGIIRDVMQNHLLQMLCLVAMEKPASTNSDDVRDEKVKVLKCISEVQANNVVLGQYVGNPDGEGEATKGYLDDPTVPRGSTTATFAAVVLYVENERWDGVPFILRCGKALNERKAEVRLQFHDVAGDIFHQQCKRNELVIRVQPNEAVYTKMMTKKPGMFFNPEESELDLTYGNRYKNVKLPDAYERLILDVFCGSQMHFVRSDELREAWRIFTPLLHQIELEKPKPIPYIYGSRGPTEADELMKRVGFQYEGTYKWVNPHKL
# CHO = CHO cell viability loss, potency – luminescence, cytotoxicity control for TLR9-MyD88 binding inhibitor project, dose response (AID 588339); format: functional, cell-based, hamster; conditions: Cricetulus griseus;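 also: CHO cells stably coexpressing TLR9 and MyD88 fusions from primary screen; compound exposure lasted 48 hours before viability readout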
# Beta Lactamase = Beta Lactamase (Pseudomonas aeruginosa, UniProt Q932Y6); test: BLA reporter interference, concentration series – BLA reporter cells, FRET fluorescence, artefact control for TLR9-MyD88 binding inhibitor project, dose response (AID 588341); format: cell-based;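 also: cell based assay in CHO-K1 cells stably expressing beta-lactamase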
# Beta Lactamase, sequence (Q932Y6 whole entry): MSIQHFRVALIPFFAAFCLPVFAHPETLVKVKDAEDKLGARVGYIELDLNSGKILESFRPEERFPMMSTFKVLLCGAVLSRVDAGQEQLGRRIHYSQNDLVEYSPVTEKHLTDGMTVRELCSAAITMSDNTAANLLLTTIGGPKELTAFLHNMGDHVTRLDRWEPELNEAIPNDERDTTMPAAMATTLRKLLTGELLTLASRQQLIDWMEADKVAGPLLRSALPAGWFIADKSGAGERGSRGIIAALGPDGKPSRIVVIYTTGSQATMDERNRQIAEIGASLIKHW
# cells [3] = format: functional, cell-based
# [4] = molecular target: T1, Nuclear receptor subfamily 0 group B member 1 (Homo sapiens, UniProt P51843); format: functional, cell-based;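 also: HEK293T cells transfected with SF-1 and DAX-1 plus StAR promoter luciferase reporter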
# T1 sequence (P51843 whole entry): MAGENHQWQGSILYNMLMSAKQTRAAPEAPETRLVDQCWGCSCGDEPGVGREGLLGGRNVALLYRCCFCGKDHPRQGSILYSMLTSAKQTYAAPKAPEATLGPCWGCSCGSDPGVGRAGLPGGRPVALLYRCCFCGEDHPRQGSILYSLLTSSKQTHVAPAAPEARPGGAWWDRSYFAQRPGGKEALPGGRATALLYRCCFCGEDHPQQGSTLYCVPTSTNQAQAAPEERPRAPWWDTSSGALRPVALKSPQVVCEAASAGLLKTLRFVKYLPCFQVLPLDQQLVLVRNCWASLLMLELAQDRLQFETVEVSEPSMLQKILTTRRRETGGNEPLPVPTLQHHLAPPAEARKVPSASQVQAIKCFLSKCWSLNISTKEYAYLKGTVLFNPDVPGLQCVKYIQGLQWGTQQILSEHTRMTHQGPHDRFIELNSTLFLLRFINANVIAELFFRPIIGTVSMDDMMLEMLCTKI
# [5] = blockers of CRF-binding protein–CRF-R2 complex – cell-based, uHTS hits, 384-well, dose response (AID 651639); format: functional, Homo sapiens; conditions: read-out: IC50_Mean
# [6] = molecular target: T2, Corticotropin-releasing factor receptor 2/Corticotropin-releasing factor-binding protein (Homo sapiens, UniProt P24387+Q13324); test: Dose Response confirmation of uHTS hits for small molecule antagonists of the CRF-binding protein and CRF-R2 receptor complex.; format: functional; conditions: read-out: IC50_Mean
# T2 sequence (Q13324 whole entry): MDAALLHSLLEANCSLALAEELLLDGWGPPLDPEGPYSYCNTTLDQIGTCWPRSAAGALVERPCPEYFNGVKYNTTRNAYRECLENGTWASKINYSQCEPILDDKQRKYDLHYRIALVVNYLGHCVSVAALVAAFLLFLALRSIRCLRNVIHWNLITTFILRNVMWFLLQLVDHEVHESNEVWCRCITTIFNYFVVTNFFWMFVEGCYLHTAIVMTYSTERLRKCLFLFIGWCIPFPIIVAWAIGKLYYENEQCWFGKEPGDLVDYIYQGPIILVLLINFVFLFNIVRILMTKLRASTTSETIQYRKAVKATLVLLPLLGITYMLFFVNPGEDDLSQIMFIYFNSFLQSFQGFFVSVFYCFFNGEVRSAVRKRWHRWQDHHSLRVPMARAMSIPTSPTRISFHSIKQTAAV
# T2 sequence (P24387 whole entry): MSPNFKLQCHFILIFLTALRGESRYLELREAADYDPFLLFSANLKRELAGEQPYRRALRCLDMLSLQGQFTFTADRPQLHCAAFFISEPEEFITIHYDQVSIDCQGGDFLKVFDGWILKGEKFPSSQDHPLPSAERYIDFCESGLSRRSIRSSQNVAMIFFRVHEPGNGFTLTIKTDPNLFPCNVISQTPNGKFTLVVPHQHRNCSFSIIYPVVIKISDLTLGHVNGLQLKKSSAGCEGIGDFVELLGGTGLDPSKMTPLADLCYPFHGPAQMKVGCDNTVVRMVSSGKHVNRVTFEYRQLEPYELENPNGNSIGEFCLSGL
# [7] = molecular target: T2, Corticotropin-releasing factor receptor 2/Corticotropin-releasing factor-binding protein; test: activators of CRF receptor 2 with binding protein – uHTS hits, confirmation (AID 602473); format: functional; conditions: read-out: EC50_Mean
# [8] = molecular target: T3, Oxysterols receptor LXR-beta (Homo sapiens, UniProt P55055); format: functional, cell-based;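 also: Cell-based luminescence dose-response assay of agonist activity at LXR, run as a confirmatory counterscreen to a daf-12 agonist screen; HEK293 cells with Gal4-LXR fusion and GAL4-driven luciferase reporter; agonist potency from rising luciferase signal of a Gal4-LXR reporter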
# T3 sequence (P55055 whole entry): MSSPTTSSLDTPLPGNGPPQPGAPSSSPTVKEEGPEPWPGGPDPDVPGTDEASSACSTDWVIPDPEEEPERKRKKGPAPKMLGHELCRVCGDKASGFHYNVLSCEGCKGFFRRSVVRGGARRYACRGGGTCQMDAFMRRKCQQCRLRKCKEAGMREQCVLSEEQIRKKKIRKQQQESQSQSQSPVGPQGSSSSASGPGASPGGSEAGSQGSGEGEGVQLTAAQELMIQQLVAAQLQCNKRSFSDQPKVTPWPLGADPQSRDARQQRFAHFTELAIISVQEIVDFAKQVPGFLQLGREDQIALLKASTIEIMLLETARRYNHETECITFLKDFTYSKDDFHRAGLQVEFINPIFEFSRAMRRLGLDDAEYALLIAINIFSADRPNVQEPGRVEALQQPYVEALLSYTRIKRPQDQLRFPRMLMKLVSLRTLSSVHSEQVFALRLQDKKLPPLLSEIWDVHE
# cells [9] = format: functional
# [10] = HepG2 cell cytotoxicity, dose response, cytotoxicity control for non-replicating M. tuberculosis project (AID 489018); format: functional; conditions: Mycobacterium tuberculosis
# cells [11] = test: cells
# [12] = general mammalian cell viability loss – inhibitor set, cherry-pick, set 2, cytotoxicity control for miR-122 modulator project, dose response (AID 720697); format: functional, cell-based
# Cytochrome P450 2C9 = Cytochrome P450 2C9 (Homo sapiens, UniProt P11712)
# Cytochrome P450 2C9, sequence (P11712 whole entry): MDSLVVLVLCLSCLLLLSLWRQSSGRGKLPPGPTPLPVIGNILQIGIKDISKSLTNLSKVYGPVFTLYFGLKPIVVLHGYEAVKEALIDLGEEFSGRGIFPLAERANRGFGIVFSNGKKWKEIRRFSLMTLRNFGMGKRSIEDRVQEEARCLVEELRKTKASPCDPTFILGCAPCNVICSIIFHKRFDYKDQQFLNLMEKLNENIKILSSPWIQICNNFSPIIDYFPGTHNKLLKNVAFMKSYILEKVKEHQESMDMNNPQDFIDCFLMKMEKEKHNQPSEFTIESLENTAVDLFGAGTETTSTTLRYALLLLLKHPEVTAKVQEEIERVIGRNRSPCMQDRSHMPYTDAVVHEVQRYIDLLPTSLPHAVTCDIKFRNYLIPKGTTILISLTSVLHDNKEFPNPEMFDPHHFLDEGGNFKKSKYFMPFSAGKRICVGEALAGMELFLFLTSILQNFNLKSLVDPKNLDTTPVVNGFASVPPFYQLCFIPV
# Cytochrome P450 2D6 = Cytochrome P450 2D6 (Homo sapiens, UniProt P10635);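 also: CYP2D6 member of a cytochrome P450 panel assay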
# Cytochrome P450 2D6, sequence (P10635 whole entry): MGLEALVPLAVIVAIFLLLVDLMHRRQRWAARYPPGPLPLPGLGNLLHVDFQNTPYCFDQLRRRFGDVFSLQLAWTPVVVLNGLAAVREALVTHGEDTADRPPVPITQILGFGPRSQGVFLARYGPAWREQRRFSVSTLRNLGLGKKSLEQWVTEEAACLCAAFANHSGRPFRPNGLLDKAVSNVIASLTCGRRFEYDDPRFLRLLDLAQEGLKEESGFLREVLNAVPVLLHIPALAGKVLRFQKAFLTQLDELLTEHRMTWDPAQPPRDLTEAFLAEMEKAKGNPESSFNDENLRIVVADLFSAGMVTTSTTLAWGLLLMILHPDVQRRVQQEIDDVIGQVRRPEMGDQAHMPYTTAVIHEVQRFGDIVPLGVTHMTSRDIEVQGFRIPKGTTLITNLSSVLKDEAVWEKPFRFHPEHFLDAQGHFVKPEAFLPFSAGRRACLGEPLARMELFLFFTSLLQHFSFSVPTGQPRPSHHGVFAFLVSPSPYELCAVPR
# Cytochrome P450 3A4 = Cytochrome P450 3A4 (Homo sapiens, UniProt P08684);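 also: CYP3A4 tested as one member of a cytochrome P450 panel screen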
# Cytochrome P450 3A4, sequence (P08684 whole entry): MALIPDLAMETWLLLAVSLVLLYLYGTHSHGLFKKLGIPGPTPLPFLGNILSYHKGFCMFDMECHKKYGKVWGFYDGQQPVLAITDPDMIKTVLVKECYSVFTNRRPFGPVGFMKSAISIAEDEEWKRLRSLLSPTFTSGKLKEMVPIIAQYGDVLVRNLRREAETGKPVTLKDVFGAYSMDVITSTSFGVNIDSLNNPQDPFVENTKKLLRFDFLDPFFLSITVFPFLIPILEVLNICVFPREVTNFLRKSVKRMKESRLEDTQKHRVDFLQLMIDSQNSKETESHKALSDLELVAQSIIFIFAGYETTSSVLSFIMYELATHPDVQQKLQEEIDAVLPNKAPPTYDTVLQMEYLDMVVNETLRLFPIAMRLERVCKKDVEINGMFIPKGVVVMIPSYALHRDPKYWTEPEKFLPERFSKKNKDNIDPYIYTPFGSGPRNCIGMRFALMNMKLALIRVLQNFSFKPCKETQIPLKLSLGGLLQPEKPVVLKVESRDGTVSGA
structure (smiles),measurement,setting,value
COc1ccccc1C1c2c(C)nn(-c3ccccc3)c2NC(=O)C1NC(=O)c1ccccc1 (configuration not stated),AC50,[1],23.5 µM (active)
N#Cc1c(C#N)c(SSc2c(C#N)c(C#N)c(N)n2-c2ccccc2)n(-c2ccccc2)c1N,IC50,[2],> 80 µM (inactive)
O=C1C=CC(=O)N1c1ccc2c(c1)C(NC(=O)C(F)(F)F)c1ccccc1-2 (configuration not stated),IC50,CHO,1.91 µM (active)
same,IC50,Beta Lactamase,14.5 µM (inactive)
same,IC50,[2],> 80 µM (inactive)
O=C1C(=Cc2ccccc2Cl)CCc2ccccc21,IC50,cells [3],> 67.5 µM (inactive)
same,IC50,[4],> 67.5 µM (inactive)
Clc1ccc(Cl)c(Oc2ccc(Oc3nc(Cl)ccc3Cl)cc2)n1,IC50,[5],11.4 µM (active)
same,IC50,[6],0.727 µM (active)
same,EC50,[7],> 53 µM (inactive)
Cc1ccc(Cc2c(-c3ccc(Br)cc3)nc3cc(C)ccn23)cc1,IC50,cells [3],> 67.5 µM (inactive)
same,IC50,[4],> 67.5 µM (inactive)
C=C1[C@@H](C)C2[C@H](Cc3ccccc3)NC(=O)[C@]23[C@H](OC(C)=O)/C=C/[C@@](C)(O)C(=O)[C@@H](C)C/C=C/[C@H]3[C@@H]1O (some centres not stated),IC50,cells [3],> 67.5 µM (inactive)
same,IC50,[4],14 µM (inactive)
Cc1ccc(/N=N/c2c(C)[nH]n(C(N)=S)c2=O)cc1C,EC50,[8],> 67.5 µM (inactive)
same,IC50,cells [9],10.1 µM (active)
same,CC50,[10],> 20 µM (active)
same,EC50,cells [11],> 67.5 µM (inactive)
Cc1[nH]n(C(N)=S)c(=O)c1/N=N/c1ccc(Br)cc1,EC50,[8],> 67.5 µM (inactive)
same,EC50,cells [11],> 67.5 µM (inactive)
CO[C@@H]1CN(C)C(=O)c2cc(NC(=O)NC(C)C)ccc2OC[C@H](C)N(Cc2cncnc2)C[C@H]1C,AC50,[12],0.472 µM (active)
COc1ccccc1C#Cc1ccc2c(c1)O[C@@H](CN(C)Cc1cccnc1)[C@H](C)CN([C@@H](C)CO)S2(=O)=O,AC50,[1],2.25 µM (active)
C/C(=N/NC(=O)c1ccc2c(c1)OCO2)c1ccc(NC(=O)c2ccc(F)cc2)cc1,IC50,cells [3],> 67.5 µM (inactive)
same,IC50,[4],> 67.5 µM (inactive)
FC(F)(F)c1cccc(NC(=S)Nc2cccc(Cl)c2)c1,AC50,Cytochrome P450 2C9,inconclusive
same,AC50,Cytochrome P450 2D6,28.2 µM (inconclusive)
same,AC50,Cytochrome P450 3A4,25.1 µM (inconclusive)
